Data: patent US20260242352A1, “INHIBITION OF SHIP1 AS A THERAPEUTIC STRATEGY FOR THE TREATMENT OF ALZHEIMER'S DISEASE” (The Trustees of Indiana University, priority 2022, published 2026)
Where a name gives a salt, the structure may show the parent alone.

target: T1, SHIP1 (Homo sapiens, UniProt Q92835); test: Malachite green enzyme assay; format: biochemical; conditions: Table 1; PI(3,4,5)P3-diC8 52 μM, enzyme 10 nM, SHIP1 Ptase-C2, 25° C., pH7.4; geometric mean; read-out: SHIP1 IC50 μM (n)
T1 sequence (Q92835 396-858): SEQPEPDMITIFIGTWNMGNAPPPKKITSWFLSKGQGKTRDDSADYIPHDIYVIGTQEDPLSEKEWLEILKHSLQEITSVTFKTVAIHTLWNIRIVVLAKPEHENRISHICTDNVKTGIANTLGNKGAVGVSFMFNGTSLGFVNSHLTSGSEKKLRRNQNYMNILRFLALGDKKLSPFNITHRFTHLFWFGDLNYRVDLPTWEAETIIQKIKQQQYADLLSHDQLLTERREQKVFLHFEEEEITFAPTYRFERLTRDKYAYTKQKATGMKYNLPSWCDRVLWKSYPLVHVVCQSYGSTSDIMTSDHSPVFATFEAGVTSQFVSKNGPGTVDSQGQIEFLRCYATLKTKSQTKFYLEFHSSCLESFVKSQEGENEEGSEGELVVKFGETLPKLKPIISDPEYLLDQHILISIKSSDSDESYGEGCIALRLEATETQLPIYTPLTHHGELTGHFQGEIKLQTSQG
Excerpt: The inventors have performed a screen of 50K compounds at the SHIP1 phosphatase, analyzed a publicly available fragment-based screen, and evaluated inhibitors reported in the literature. They utilized the malachite green assay with PtdIns(3,4,5)P3-diC8 and SHIP1 Ptase-C2 to measure inhibitory potency. A Cellular Thermal Shift Assay was used to confirm target engagement in cells. A phosphoAKT assay was used to provide additional evidence of on-target activity. A high-content imaging assay measuring phagocytosis, cell number, and nuclear intensity was implemented using the BV2 and HMC3 cell lines to characterize cellular pharmacology and cytotoxicity. […] Inhibitors predicted to have drug-like properties were subjected to assays measuring solubility, cellular permeability, and mouse microsomal stability. A physiological based pharmacokinetic model was compared to measured exposure in vivo for select compounds upon oral administration in mice.
Malachite Green Enzyme Assay. […] Compounds diluted in DMSO were added to 384-well plates. Enzyme solution was added. After a 20 min incubation period, the reaction was initiated by addition of PI(3,4,5)P3-diC8. Final compound concentrations ranged from 50 nM to 950 μM. Final reaction concentrations for the PI(3,4,5)P3-diC8 substrate and the enzyme were 52 μM and 10 nM respectively. The reaction was quenched after 10 min by adding Malachite BioMol Green (Enzo Lifesciences, PA, USA). Plates were then incubated for 30 min at room temperature. Absorbance (620 nm) was measured using a SpectraMax Me5 Microplate Reader (Molecular Devices, LLC, USA). IC50 values were calculated by fitting absorbance versus inhibitor concentration.
Compounds diluted in DMSO were added to 384-well plates. Enzyme solution was added. After a 20 min incubation period, the reaction was initiated by addition of PI(3,4,5)P3-diC8. Final compound concentrations ranged from 50 nM to 950 μM. Final reaction concentrations for the PI(3,4,5)P3-diC8 substrate and the enzyme were 52 μM and 10 nM respectively. The reaction was quenched after 10 min by adding Malachite BioMol Green (Enzo Lifesciences, PA, USA). Plates were then incubated for 30 min at room temperature. Absorbance (620 nm) was measured using a SpectraMax Me5 Microplate Reader (Molecular Devices, LLC, USA). IC50 values were calculated by fitting absorbance versus inhibitor concentration and are reported as the geometric mean and standard error of mean with the number of repeats (n) indicated. Compounds and activities are as depicted in tables 1 and 2 above.

Row | SMILES | IC50 [µM]
1 | CC(C)(C)OC(=O)N1CCC(n2cc(-c3cncc(OCc4ccc(Cl)cc4Cl)c3)cn2)CC1 [Compound 8, tert-butyl 4-(4-(5-((2,4-dichlorobenzyl)oxy)pyridin-3-yl)-1H-pyrazol-1-yl)piperidine-1-carboxylate] | 18.1
2 | COC(=O)N1CCC(n2cc(-c3cncc(OCc4ccccc4Cl)c3)cn2)CC1 [Compound 17, Methyl 4-(4-(5-((2-chlorobenzyl)oxy)pyridin-3-yl)-1H-pyrazol-1-yl)piperidine-1-carboxylate] | 133
3 | O=C(c1ccccc1)N1CCC(n2cc(-c3cncc(OCc4ccccc4Cl)c3)cn2)CC1 [Compound 18, (4-(4-(5-((2-chlorobenzyl)oxy)pyridin-3-yl)-1H-pyrazol-1-yl)piperidin-1-yl)(phenyl)methanone] | 99.2

Now from value to compound:

Row | IC50 [µM] | SMILES
4 | 137 | CC(C)(C)OC(=O)N1CCC(n2cc(-c3cncc(OCc4ccc(Cl)cc4)c3)cn2)CC1 [Compound 6, tert-butyl 4-(4-(5-((4-chlorobenzyl)oxy)pyridin-3-yl)-1H-pyrazol-1-yl)piperidine-1-carboxylate]
5 | 109 | Clc1ccc(COc2cncc(-c3cnn(C4CCNCC4)c3)c2)cc1 [Compound 11, 3-((4-chlorobenzyl)oxy)-5-(1-(piperidin-4-yl)-1H-pyrazol-4-yl)pyridine hydrochloride]
6 | 29.7 | Brc1ccc(COc2cncc(-c3cnn(C4CCNCC4)c3)c2)cc1 [Compound 12, 3-((4-bromobenzyl)oxy)-5-(1-(piperidin-4-yl)-1H-pyrazol-4-yl)pyridine hydrochloride]
7 | 208 | c1ccc(COc2cncc(-c3cnn(C4CCNCC4)c3)c2)cc1 [Compound 14, 3-(benzyloxy)-5-(1-(piperidin-4-yl)-1H-pyrazol-4-yl)pyridine trifluoroacetate]

target: T2, HiBit-labeled full length SHIP1 protein (Homo sapiens, UniProt Q92835); test: Cellular thermal shift assay (SplitLuc CETSA), compound dose response; format: cell-based; conditions: HMC3/HiBit-INPP5D cells, 60 min, heated at 44.2° C.
T2 construct: thermal stability of a HiBit-labeled full length SHIP1 protein in intact cells; expressed in transfected cells; host or cells: HMC3 (stably transfected)
T2 sequence (Q92835 1-1189): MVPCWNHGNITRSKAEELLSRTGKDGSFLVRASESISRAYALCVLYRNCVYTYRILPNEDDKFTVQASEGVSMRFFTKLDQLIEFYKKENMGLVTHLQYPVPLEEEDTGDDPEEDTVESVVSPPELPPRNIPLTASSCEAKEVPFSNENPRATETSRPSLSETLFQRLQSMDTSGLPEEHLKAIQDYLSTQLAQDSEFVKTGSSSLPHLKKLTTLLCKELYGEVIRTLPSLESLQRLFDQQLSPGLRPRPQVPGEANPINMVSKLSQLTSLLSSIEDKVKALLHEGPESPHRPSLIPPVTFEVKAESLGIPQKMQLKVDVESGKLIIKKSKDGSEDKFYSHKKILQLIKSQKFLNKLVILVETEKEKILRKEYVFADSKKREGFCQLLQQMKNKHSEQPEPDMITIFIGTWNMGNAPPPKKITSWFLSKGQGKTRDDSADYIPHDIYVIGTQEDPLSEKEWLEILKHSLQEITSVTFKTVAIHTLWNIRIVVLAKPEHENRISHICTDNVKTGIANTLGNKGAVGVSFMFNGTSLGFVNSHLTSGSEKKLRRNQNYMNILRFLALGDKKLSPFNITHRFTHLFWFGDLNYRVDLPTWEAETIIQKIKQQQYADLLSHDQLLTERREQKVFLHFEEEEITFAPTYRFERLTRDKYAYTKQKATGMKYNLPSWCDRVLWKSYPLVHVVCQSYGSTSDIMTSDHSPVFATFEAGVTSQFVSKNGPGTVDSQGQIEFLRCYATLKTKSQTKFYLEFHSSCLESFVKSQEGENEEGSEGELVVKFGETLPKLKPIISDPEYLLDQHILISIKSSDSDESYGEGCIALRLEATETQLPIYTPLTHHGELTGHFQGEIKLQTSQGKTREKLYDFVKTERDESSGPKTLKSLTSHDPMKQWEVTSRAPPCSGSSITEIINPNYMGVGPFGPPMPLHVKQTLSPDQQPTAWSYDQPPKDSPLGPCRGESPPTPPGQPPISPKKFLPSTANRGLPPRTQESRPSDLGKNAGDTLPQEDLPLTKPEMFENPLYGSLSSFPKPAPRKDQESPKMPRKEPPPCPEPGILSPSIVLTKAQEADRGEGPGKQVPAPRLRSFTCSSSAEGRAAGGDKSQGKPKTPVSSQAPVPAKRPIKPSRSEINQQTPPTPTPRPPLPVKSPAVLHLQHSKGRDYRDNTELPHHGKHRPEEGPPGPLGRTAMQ
Description: Cellular thermal shift assay (CETSA). […] This assay was run in the following two formats with HMC3/HiBit-INPP5D stably transfected cells.
2. Compound dose response: run at target Tm (44.2° C. for SHIP1) with compound dosing from 80 uM or 100 uM with 1:3 serial dilutions to generate an 8 point curve. Cells were treated for 60 min before being heated at target Tm for 3 min before luminescence detection. An AC50 was calculated using a four-parameter logistic curve regression model with change at highest concentration noted when difference from control >3SD, otherwise AC50 marked as “nc” for not calculated.
See Martinez et al. (2018) Sci Rep 8: p. 9472; Oh-Hashi et al. (2017) Biochem Biophys Rep 12: pp. 40-45. This assay was run in the following two formats with HMC3/HiBit-INPP5D stably transfected cells.
Compound dose response: run at target Tm (44.2° C. for SHIP1) with compound dosing from 80 uM or 100 uM with 1:3 serial dilutions to generate an 8-point curve. Cells were treated for 60 min before being heated at target Tm for 3 min before luminescence detection. The concentration that induced a half-maximum response (AC50) was calculated using a four-parameter logistic curve regression model with change at highest concentration noted when difference from control >3SD.

Row | CETSA Min Inhibition (%) | SMILES
8 | 72.1 | O=C(OCc1ccccc1)N1CCC(n2cc(-c3cncc(OCc4ccccc4Cl)c3)cn2)CC1 [Compound 19, Benzyl 4-(4-(5-((2-chlorobenzyl)oxy)pyridin-3-yl)-1H-pyrazol-1-yl)piperidine-1-carboxylate]

tested on: BV2 cells; test: pHrodo-myelin phagocytosis/cell health assay, BV2 cells; format: cell-based; conditions: Mus musculus, BV-2, compound 48 hrs, 60 μM to 3 nM, (n) in cell
Description: pHrodo-myelin phagocytosis/cell health assay with microglial cells. This 384-well plate high content imaging assay was developed to quantify phagocytosis and cell health simultaneously using either BV2 or HMC3 immortalized microglial cell lines or primary microglia isolated from mouse brain. Cells were cultured in DMEM GlutaMax media (ThermoFisher) containing 10% FBS and Pen-Strep in 37° C. 5% CO2 incubator.
Day 1: Cells were plated (Corning Falcon 384 well Optilux Black and clear bottom plates for imaging) with BV2 at 400 cells/45 μl/well, HMC3 at 600 cells/45 μl/well, or primary at 2000 cell/45 μl/well.
Day 2: Cells were treated with 10× serially diluted compounds in a dose range of 60 μM to 3 nM for 48 hrs at 37° C.
Day 3: Cells were seeded with pHrodo-myelin (for total 20 hrs) 24 hrs after starting compound treatment. The pHrodo-myelin stocks were at 1 mg/ml (protein equivalent) stored in −20° C. or −80° C. freezer. Stocks were thawed and diluted with culture media into 10× seeding solution (50 μg/ml) and added 5 μl/well to 384 well cell plate.
Day 4: Cell staining and imaging. Nuclear staining solution was prepared by adding 1 μl of 10 mg/mL Hoechst-33342 to every 1 ml culture media that will be added to cell plate at 20 μl/well. The final concentration of Hoechst-33342 to cells was about 2.5 μg/ml. Cell plates were incubated for >30 min at 37° C. before imaging. Cell plates were scanned with an ArrayScan automatic high content imaging system using a 10× objective lens, 4 fields/well collected. Three measurements were obtained 1) mean total phagocytosis spot intensity per cell, 2) total cell counts per well, and 3) mean average nuclear intensity per cell for cell health.
This 384-well plate high content imaging assay was developed to quantify phagocytosis and cell health simultaneously using either BV2 or HMC3 immortalized microglial cell lines or primary microglia isolated from mouse brain. Cells were cultured in DMEM GlutaMax media (ThermoFisher) containing 10% FBS and Pen-Strep in 37° C. 5% CO2 incubator. Day 1: Cells were plated (Corning Falcon 384 well Optilux Black and clear bottom plates for imaging) with BV2 at 400 cells/45 μl/well, HMC3 at 600 cells/45 μl/well, or primary at 2000 cell/45 μl/well. Day 2: Cells were treated with 10× serially diluted compounds in a dose range of 60 μM to 3 nM for 48 hrs at 37° C. Day 3: Cells were seeded with pHrodo-myelin (for total 20 hrs) 24 hrs after starting compound treatment. The pHrodo-myelin stocks were at 1 mg/ml (protein equivalent) stored in −20° C. or −80° C. freezer. Stocks were thawed and diluted with culture media into 10× seeding solution (50 μg/ml) and added 5 μl/well to 384 well cell plate. Day 4: Cell staining and imaging. Nuclear staining solution was prepared by adding 1 μl of 10 mg/mL Hoechst-33342 to every 1 ml culture media that will be added to cell plate at 20 μl/well. The final concentration of Hoechst-33342 to cells was about 2.5 μg/ml. Cell plates were incubated for >30 min at 37° C. before imaging. Cell plates were scanned with an ArrayScan automatic high content imaging system using a 10× objective lens, 4 fields/well collected. Three measurements were obtained 1) mean total phagocytosis spot intensity per cell, 2) total cell counts per well, and 3) mean average nuclear intensity per cell for cell health.

Row | EC50 [µM] | SMILES
9 | 0.958 | O=C(OCc1ccccc1)N1CCC(n2cc(-c3cncc(OCc4ccccc4Cl)c3)cn2)CC1 [Compound 19, Benzyl 4-(4-(5-((2-chlorobenzyl)oxy)pyridin-3-yl)-1H-pyrazol-1-yl)piperidine-1-carboxylate]
